For this experiment, the target named is recombinant human UAE (Homo sapiens (Human), UniProt P22314). The experiment is described as follows: Ubiquitin Activating Enzyme (UAE) HTRF Assay. To be noted: read-out: % inhibition @0.111 μM.
Chain of recombinant human UAE (P22314 whole entry): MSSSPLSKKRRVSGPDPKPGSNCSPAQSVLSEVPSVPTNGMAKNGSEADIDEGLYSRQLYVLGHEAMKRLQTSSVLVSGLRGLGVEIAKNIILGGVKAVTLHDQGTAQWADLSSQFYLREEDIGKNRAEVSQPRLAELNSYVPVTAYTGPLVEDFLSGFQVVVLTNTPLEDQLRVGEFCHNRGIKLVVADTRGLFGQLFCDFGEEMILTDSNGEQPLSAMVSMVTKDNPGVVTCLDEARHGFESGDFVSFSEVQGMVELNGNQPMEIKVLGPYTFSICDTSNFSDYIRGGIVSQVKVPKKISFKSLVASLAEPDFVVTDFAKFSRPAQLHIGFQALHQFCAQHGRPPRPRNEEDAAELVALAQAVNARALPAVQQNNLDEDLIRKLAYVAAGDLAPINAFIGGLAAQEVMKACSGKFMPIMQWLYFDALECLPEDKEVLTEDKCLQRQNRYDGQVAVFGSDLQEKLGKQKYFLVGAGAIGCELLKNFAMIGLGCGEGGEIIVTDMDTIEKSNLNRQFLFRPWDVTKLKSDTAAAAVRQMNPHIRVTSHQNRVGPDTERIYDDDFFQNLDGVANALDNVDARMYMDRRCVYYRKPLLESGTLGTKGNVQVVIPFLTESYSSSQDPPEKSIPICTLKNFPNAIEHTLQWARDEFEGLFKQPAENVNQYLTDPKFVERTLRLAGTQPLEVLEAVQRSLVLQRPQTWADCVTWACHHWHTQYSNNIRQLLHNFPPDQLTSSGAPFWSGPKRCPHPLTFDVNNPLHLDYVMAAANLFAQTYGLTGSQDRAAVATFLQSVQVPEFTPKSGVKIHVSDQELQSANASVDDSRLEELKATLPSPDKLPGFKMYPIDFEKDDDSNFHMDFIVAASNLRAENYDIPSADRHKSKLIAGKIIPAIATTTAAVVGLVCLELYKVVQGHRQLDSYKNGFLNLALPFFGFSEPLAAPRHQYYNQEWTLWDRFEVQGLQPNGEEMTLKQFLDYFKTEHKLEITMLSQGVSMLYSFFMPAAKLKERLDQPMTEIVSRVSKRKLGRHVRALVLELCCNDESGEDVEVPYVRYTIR
Procedure: After incubation for 120 minutes, quantification of the FRET is performed on the Pherostar (BMG).
For compounds whose values are marked with an asterisk (*), mouse UAE was used. For all other compounds, human UAE was used.
Take `COC(=O)c1ccc2c(-c3cc4nccc(N[C@@H]5C[C@H](COS(N)(=O)=O)[C@@H](O)[C@H]5O)n4n3)cccc2c1` (relative stereo) [Compound I-096, (rac)-methyl rel-5-[7-({(1R,2S,3R,4R)-2,3-dihydroxy-4-[(sulfamoyloxy)methyl]cyclopentyl}amino)pyrazolo[1,5-a]pyrimidin-2-yl]-2-naphthoate]: the inhibition at 0.111 µM worked out at 100%. With `NS(=O)(=O)OC[C@H]1C[C@@H](Nc2ccnc3cc(-c4cccc5cc(C(=O)O)ccc45)nn23)[C@H](O)[C@@H]1O` (relative stereo) [Compound I-099, (rac)-rel-5-[7-({(1R,2S,3R,4R)-2,3-dihydroxy-4-[(sulfamoyloxy)methyl]cyclopentyl}amino)pyrazolo[1,5-a]pyrimidin-2-yl]-2-naphthoic acid] the figure was 100%.

Regarding `NS(=O)(=O)OC[C@H]1C[C@@H](Nc2ccnc3cc(-c4cncc(-c5ccccc5)n4)nn23)[C@H](O)[C@@H]1O` (relative stereo) [Compound I-121, (rac)-((1R,2R,3S,4R)-2,3-dihydroxy-4-{[2-(6-phenylpyrazin-2-yl)pyrazolo[1,5-a]pyrimidin-7-yl]aminolcyclopentyl)methylrel-sulfamate], the inhibition at 0.111 µM worked out at 100%. Under `Cn1cc(-c2cccc(-c3cc4nccc(N[C@@H]5C[C@H](COS(N)(=O)=O)[C@@H](O)[C@H]5O)n4n3)c2)cn1` (relative stereo) [Compound I-122, (rac)-[(1R,2R,3S,4R)-2,3-dihydroxy-4-({2-[3-(1-methyl-1H-pyrazol-4-yl)phenyl]pyrazolo[1,5-a]pyrimidin-7-yl}amino)cyclopentyl]methyl rel-sulfamate] stands 97%; under `CC(CO)(CCl)c1cccc(-c2cc3nccc(N[C@@H]4C[C@H](COS(N)(=O)=O)[C@@H](O)[C@H]4O)n3n2)c1` (relative stereo) [Compound I-123, (rac)-{(1R,2R,3S,4R)-4-[(2-{3-[2-chloro-1-(hydroxymethyl)-1-methylethyl]phenyl}pyrazolo[1,5-a]pyrimidin-7-yl)amino]-2,3-dihydroxycyclopentyl}methyl rel-sulfamate], 100%. `NS(=O)(=O)OC[C@H]1C[C@@H](Nc2ccnc3cc(-c4cccc5ccccc45)nn23)[C@H](O)[C@@H]1O` [Compound I-098, (s.e.)-((1R,2R,3S,4R)-2,3-dihydroxy-4-{[2-(1-naphthyl)pyrazolo[1,5-a]pyrimidin-7-yl]amino}cyclopentyl)methyl sulfamate]: the inhibition at 0.111 µM stood at 100%. With `NS(=O)(=O)OC[C@H]1C[C@@H](Nc2ccnc3cc(-c4cccc(SC(F)(F)F)c4)nn23)[C@H](O)[C@@H]1O` [Compound I-101, (s.e.)-((1R,2R,3S,4R)-2,3-dihydroxy-4-(2-(3-(trifluoromethylthio)phenyl)pyrazolo[1,5-a]pyrimidin-7-ylamino)cyclopentyl)methyl sulfamate] the figure was 99%; with `COc1ccc(OC(F)(F)F)cc1-c1cc2nccc(N[C@@H]3C[C@H](COS(N)(=O)=O)[C@@H](O)[C@H]3O)n2n1` [Compound I-102, (s.e)-[(1R,2R,3S,4R)-2,3-dihydroxy-4-({2-[2-methoxy-5-(trifluoromethoxy)-phenyl]pyrazolo[1,5-a]pyrimidin-7-yl}amino)cyclopentyl]methyl sulfamate], 100%; with `NS(=O)(=O)OC[C@H]1C[C@@H](Nc2ccnc3cc(-c4cccc5c4oc4ccccc45)nn23)[C@H](O)[C@@H]1O` [Compound I-103, (s.e.)-((1R,2R,3S,4R)-4-(2-(dibenzo[b,d]furan-4-yl)pyrazolo[1,5-a]pyrimidin-7-ylamino)-2,3-dihydroxycyclopentyl)methyl sulfamate], 100%.

For `COc1ccc2ccccc2c1-c1cc2nccc(N[C@@H]3C[C@H](COS(N)(=O)=O)[C@@H](O)[C@H]3O)n2n1` [Compound I-104, (s.e.)-((1R,2R,3S,4R)-2,3-dihydroxy-4-(2-(2-methoxynaphthalen-1-yl)pyrazolo[1,5-a]pyrimidin-7-ylamino)cyclopentyl)methyl sulfamate], the inhibition at 0.111 µM worked out at 100%. With `COc1ccc(-c2cc3nccc(N[C@@H]4C[C@H](COS(N)(=O)=O)[C@@H](O)[C@H]4O)n3n2)c2ccccc12` [Compound I-106, (s.e.)-((1R,2R,3S,4R)-2,3-dihydroxy-4-(2-(4-methoxynaphthalen-1-yl)pyrazolo[1,5-a]pyrimidin-7-ylamino)cyclopentyl)methyl sulfamate], the inhibition at 0.111 µM was 100%.

As to `CN(C)c1ccc(-c2cc3nccc(N[C@@H]4C[C@H](COS(N)(=O)=O)[C@@H](O)[C@H]4O)n3n2)c2ccccc12` [Compound I-107, (s.e.)-((1R,2R,3S,4R)-4-(2-(4-(dimethylamino)naphthalen-1-yl)pyrazolo[1,5-a]pyrimidin-7-ylamino)-2,3-dihydroxycyclopentyl)methyl sulfamate], the inhibition at 0.111 µM was found to be 100%.

In the case of `NS(=O)(=O)OC[C@H]1C[C@@H](Nc2ccnc3cc(-c4ccc(Cl)c5ccccc45)nn23)[C@H](O)[C@@H]1O` [Compound I-108, (s.e.)-[(1R,2R,3S,4R)-4-{[2-(4-chloro-1-naphthyl)pyrazolo[1,5-a]pyrimidin-7-yl]amino}-2,3-dihydroxycyclopentyl]methyl sulfamate], the inhibition at 0.111 µM was found to be 100%. For `CC(C)Oc1ccc2ccccc2c1-c1cc2nccc(N[C@@H]3C[C@H](COS(N)(=O)=O)[C@@H](O)[C@H]3O)n2n1` [Compound I-109, (s.e.)-((1R,2R,3S,4R)-2,3-dihydroxy-4-(2-(2-isopropoxynaphthalen-1-yl)pyrazolo[1,5-a]pyrimidin-7-ylamino)cyclopentyl)methyl sulfamate], the inhibition at 0.111 µM came to 100%. Consider `NS(=O)(=O)OC[C@H]1C[C@@H](Nc2ccnc3cc(-c4c(OC(F)F)ccc5ccccc45)nn23)[C@H](O)[C@@H]1O` [Compound I-110, (s.e.)-((1R,2R,3S,4R)-4-(2-(2-(difluoromethoxy)naphthalen-1-yl)pyrazolo[1,5-a]pyrimidin-7-ylamino)-2,3-dihydroxycyclopentyl)methyl sulfamate], for which the inhibition at 0.111 µM is 100%. On to `NS(=O)(=O)OC[C@H]1C[C@@H](Nc2ccnc3cc(-c4cccc5cc(C(F)F)ccc45)nn23)[C@H](O)[C@@H]1O` [Compound I-111, (s.e.)-((1R,2R,3S,4R)-4-(2-(6-(difluoromethyl)naphthalen-1-yl)pyrazolo[1,5-a]pyrimidin-7-ylamino)-2,3-dihydroxycyclopentyl)methyl sulfamate], for which the inhibition at 0.111 µM was found to be 100%. With `NS(=O)(=O)OC[C@H]1C[C@@H](Nc2ccnc3cc(-c4ccc(OC(F)F)c5ccccc45)nn23)[C@H](O)[C@@H]1O` [Compound I-112, (s.e.)-((1R,2R,3S,4R)-4-(2-(4-(difluoromethoxy)naphthalen-1-yl)pyrazolo[1,5-a]pyrimidin-7-ylamino)-2,3-dihydroxycyclopentyl)methyl sulfamate] the figure was 100%; with `NS(=O)(=O)OC[C@H]1C[C@@H](Nc2ccnc3cc(-c4ccc5cc(F)ccc5c4)nn23)[C@H](O)[C@@H]1O` [Compound I-113, (s.e.)-((1R,2R,3S,4R)-4-(2-(6-fluoronaphthalen-2-yl)pyrazolo[1,5-a]pyrimidin-7-ylamino)-2,3-dihydroxycyclopentyl)methyl sulfamate], 100%; with `Cc1ccc2ccccc2c1-c1cc2nccc(N[C@@H]3C[C@H](COS(N)(=O)=O)[C@@H](O)[C@H]3O)n2n1` [Compound I-114, (s.e.)-((1R,2R,3S,4R)-2,3-dihydroxy-4-(2-(2-methylnaphthalen-1-yl)pyrazolo[1,5-a]pyrimidin-7-ylamino)cyclopentyl)methyl sulfamate], 99%. With `Cc1ccc(-c2cc3nccc(N[C@@H]4C[C@H](COS(N)(=O)=O)[C@@H](O)[C@H]4O)n3n2)c2ccccc12` [Compound I-115, (s.e.)-((1R,2R,3S,4R)-2,3-dihydroxy-4-(2-(4-methylnaphthalen-1-yl)pyrazolo[1,5-a]pyrimidin-7-ylamino)cyclopentyl)methyl sulfamate], the inhibition at 0.111 µM was 100%. Regarding `NS(=O)(=O)OC[C@H]1C[C@@H](Nc2ccnc3cc(-c4c(Cl)cc(Cl)c5ccccc45)nn23)[C@H](O)[C@@H]1O` [Compound I-117, (s.e.)-((1R,2R,3S,4R)-4-(2-(2,4-dichloronaphthalen-1-yl)pyrazolo[1,5-a]pyrimidin-7-ylamino)-2,3-dihydroxycyclopentyl)methyl sulfamate], the inhibition at 0.111 µM turned out to be 92%. For the compound `NS(=O)(=O)OC[C@H]1C[C@@H](Nc2ccnc3cc(-c4cc(F)c5ccccc5c4)nn23)[C@H](O)[C@@H]1O` [Compound I-118, (s.e.)-((1R,2R,3S,4R)-4-(2-(4-fluoronaphthalen-2-yl)pyrazolo[1,5-a]pyrimidin-7-ylamino)-2,3-dihydroxycyclopentyl)methyl sulfamate], the inhibition at 0.111 µM was 100%.

Turning to `COc1ccc(SC(F)(F)F)cc1-c1cc2nccc(N[C@@H]3C[C@H](COS(N)(=O)=O)[C@@H](O)[C@H]3O)n2n1` [Compound I-120, (s.e.)-((1R,2R,3S,4R)-2,3-dihydroxy-4-(2-(2-methoxy-5-(trifluoromethylthio)-phenyl)pyrazolo[1,5-a]pyrimidin-7-ylamino)cyclopentyl)methyl sulfamate], the inhibition at 0.111 µM turned out to be 100%. As for `NS(=O)(=O)OC[C@H]1C[C@@H](Nc2c(Cl)cnc3c(Cl)c(-c4cccc(SC(F)(F)F)c4)nn23)[C@H](O)[C@@H]1O` [Compound I-124, (s.e.)-{(1R,2R,3S,4R)-4-[(3,6-dichloro-2-{3-[(trifluoromethyl)sulfanyl]phenyl}pyrazolo[1,5-a]pyrimidin-7-yl)amino]-2,3-dihydroxycyclopentyl}methyl sulfamate], the inhibition at 0.111 µM was found to be 20%.

Consider `NS(=O)(=O)OC[C@H]1C[C@@H](Nc2c(Cl)cnc3cc(-c4cccc(SC(F)(F)F)c4)nn23)[C@H](O)[C@@H]1O` [Compound I-125, (s.e.)-{(1R,2R,3S,4R)-4-[(6-chloro-2-{3-[(trifluoromethyl)sulfanyl]phenyl}pyrazolo[1,5-a]pyrimidin-7-yl)amino]-2,3-dihydroxycyclopentyl}methyl sulfamate], for which the inhibition at 0.111 µM came out at 50%.

Source of the values: US10202389B2, “Pyrazolopyrimidinyl inhibitors of ubiquitin-activating enzyme” (Millennium Pharmaceuticals, Inc., priority 2012, dated 2019).
